Assay results taken from the supplement of paper PMC4862054.

Assays:
Assay in all cases: normalised viability (% of control), CellTiter-Blue; higher = more viable cells (about 100 = DMSO control)
Details in all cases: incubation time: 72 h
[1] = tested on: MDA-MB-468
Description: (§1)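 DSRT, CellTiter-Blue viability, 72 h incubation. Signal is normalised to DMSO and benzethonium chloride controls. Value is the normalised response at dose 3.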

[2] = tested on: MFM-223
Description: as §1

[3] = tested on: HCC1937
Description: as §1

[4] = tested on: DU-4475
Description: as §1

[5] = tested on: CAL-85-1
Description: as §1

[6] = tested on: Hs578T
Description: as §1

[7] = tested on: BT-474
Description: as §1

[8] = tested on: MDA-MB-436
Description: as §1

[9] = tested on: CAL-120
Description: as §1

[10] = tested on: MDA-MB-468; remark: listed apart in the source
How it was run: (§2)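 Compound dissolved in 5 µl medium was pre-loaded into 384-well plates, and breast cancer cell lines in 20 µl suspension were seeded on top and incubated 72 h. After adding 2.5 µl CellTiter-Blue reagent for 2 h at 37 °C, fluorescence was read at 560/590 nm. Plates were normalised to vehicle (100) and a positive kill control (0), with Z'-factor quality control. Each value is normalised viability at a single listed concentration from the series.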

[11] = tested on: MFM-223; remark: listed apart in the source
How it was run: as §2

[12] = tested on: CAL-148
How it was run: as §2

[13] = tested on: HCC1937; remark: listed apart in the source
How it was run: as §2

[14] = tested on: DU-4475; remark: listed apart in the source
How it was run: as §2

[15] = tested on: MDA-MB-231
How it was run: as §2

[16] = tested on: CAL-85-1; remark: listed apart in the source
How it was run: as §2

[17] = tested on: Hs578T; remark: listed apart in the source
How it was run: as §2

[18] = tested on: HCC1599
How it was run: as §2

[19] = tested on: CAL-51
How it was run: as §2

[20] = tested on: BT-474; remark: listed apart in the source
How it was run: as §2

[21] = tested on: MDA-MB-436; remark: listed apart in the source
How it was run: as §2

[22] = tested on: HDQ-P1
How it was run: as §2

[23] = tested on: BT-549
How it was run: as §2

[24] = tested on: SK-BR-3
How it was run: as §2

[25] = tested on: CAL-120; remark: listed apart in the source
How it was run: as §2

[26] = tested on: MDA-MB-453
How it was run: as §2

[27] = tested on: HCC1143
How it was run: as §2

Nc1ccccc1NC(=O)c1ccc(CNc2nccc(-c3cccnc3)n2)cc1 [Mocetinostat]
Details | normalised viability [%]
[1], 100 nM | 129
[2], 100 nM | 80.7
[3], 100 nM | 79.2
[4], 10 nM | 91
[5], 10 nM | 91.2
[6], 100 nM | 80.8
[7], 100 nM | 95.1
[8], 100 nM | 81.2
[9], 100 nM | 53.6
[10], 10 nM | 109
[10], 1000 nM | 84.8
[10], 10000 nM | 8.4
[11], 10 nM | 88
[11], 1000 nM | 80.9
[11], 10000 nM | 31.6
[12], 3 nM | 89.2
[12], 30 nM | 93.7
[12], 100 nM | 99.8
[13], 10 nM | 84.4
[13], 1000 nM | 70.4
[13], 10000 nM | 21.4
[14], 3 nM | 97.2
[14], 30 nM | 98.5
[14], 100 nM | 103
[15], 10 nM | 85.7
[15], 1000 nM | 75.7
[15], 10000 nM | 22.4
[16], 3 nM | 93.3
[16], 30 nM | 82
[16], 100 nM | 86.9
[17], 10 nM | 96.8
[17], 1000 nM | 81.4
[17], 10000 nM | 12.6
[18], 10 nM | 102
[18], 1000 nM | 54.6
[18], 10000 nM | 23.5
[19], 3 nM | 106
[19], 30 nM | 96.9
[19], 100 nM | 97.7
[20], 10 nM | 113
[20], 1000 nM | 96.8
[20], 10000 nM | 25.6
[21], 10 nM | 94
[21], 1000 nM | 61.2
[21], 10000 nM | 28.9
[22], 3 nM | 108
[22], 30 nM | 119
[22], 100 nM | 74
[23], 10 nM | 91
[23], 1000 nM | 67.1
[23], 10000 nM | 35.9
[24], 10 nM | 101
[24], 1000 nM | 55.5
[24], 10000 nM | 3.29
[25], 10 nM | 74.8
[25], 1000 nM | 40.5
[25], 10000 nM | 18.1
[26], 3 nM | 116
[26], 30 nM | 96.1
[26], 100 nM | 87.5
[27], 10 nM | 78.5
[27], 1000 nM | 67
[27], 10000 nM | 16.7

Nc1nc(=O)c2c([nH]1)NCC(CNc1ccc(C(=O)N[C@@H](CCC(=O)O)C(=O)O)cc1)N2C=O (mixture of isomers) [Folinic acid]
Details | normalised viability [%]
[1], 9.9 nM | 119
[2], 9.9 nM | 95.5
[3], 9.9 nM | 110
[4], 0.99 nM | 105
[5], 0.99 nM | 106
[6], 9.9 nM | 96
[7], 9.9 nM | 121
[8], 9.9 nM | 128
[9], 9.9 nM | 111
[10], 0.99 nM | 115
[10], 99 nM | 107
[10], 990 nM | 115
[11], 0.99 nM | 106
[11], 99 nM | 107
[11], 990 nM | 94.4
[12], 0.297 nM | 92.2
[12], 2.97 nM | 88.9
[12], 9.9 nM | 96.6
[13], 0.99 nM | 121
[13], 99 nM | 87.8
[13], 990 nM | 107
[14], 0.297 nM | 110
[14], 2.97 nM | 85
[14], 9.9 nM | 109
[15], 0.99 nM | 100
[15], 99 nM | 123
[15], 990 nM | 118
[16], 0.297 nM | 96.2
[16], 2.97 nM | 93.9
[16], 9.9 nM | 99.8
[17], 0.99 nM | 92.2
[17], 99 nM | 102
[17], 990 nM | 96.3
[18], 0.99 nM | 111
[18], 99 nM | 106
[18], 990 nM | 118
[19], 0.297 nM | 94
[19], 2.97 nM | 92
[19], 9.9 nM | 97.6
[20], 0.99 nM | 106
[20], 99 nM | 99.6
[20], 990 nM | 116
[21], 0.99 nM | 123
[21], 99 nM | 112
[21], 990 nM | 123
[22], 0.297 nM | 122
[22], 2.97 nM | 115
[22], 9.9 nM | 92.2
[23], 0.99 nM | 100
[23], 99 nM | 105
[23], 990 nM | 102
[24], 0.99 nM | 95.3
[24], 99 nM | 98.6
[24], 990 nM | 116
[25], 0.99 nM | 105
[25], 99 nM | 110
[25], 990 nM | 108
[26], 0.297 nM | 110
[26], 2.97 nM | 109
[26], 9.9 nM | 103
[27], 0.99 nM | 92.7
[27], 99 nM | 95.8
[27], 990 nM | 92
